Consider 25 compounds from patent publication US20220030866A1, “CONJUGATES OF AUXIN ANALOGS” (The State of Israel, Ministry of Agriculture & Rural …, priority 2019, published 2022).

Type in all cases: in vivo
In experiment [1] the test system is cuttings from mature Eucalyptus grandis trees. Put plainly: rooting of cuttings from mature Eucalyptus grandis trees. Conditions: for rooting percentage of eucalyptus cuttings: Example 12: 6000 ppm IBA potassium salt and 50 μM conjugate dip 1 minute, leaves sprayed with 50 μM; for rooting compared with Compound 1a (4-CPA-ethanolamine), in words: 100 μM, submerging and/or spraying, with or without 6000 ppm IBA. As to the method:
Eight-year-old Eucalyptus grandis plants were grown from seeds and placed in a net house in 20 liter pots containing peat and tuff (70:30, v/v), drip irrigated and fertilized with 3 liters of Shefer™ 737 liquid fertilizer (ICL Fertilizers, Israel) per cubic meter of water. Cuttings were collected from branches which grew 2-2.5 meters above the ground. Cuttings were 2-3 mm thick branches, 15 cm long, with 1-2 pairs of leaves. The leaf blades were cut in half to decrease transpiration. Cuttings were treated with 6000 ppm IBA (potassium indole-3-butyric acid) for 1 minute with or without 100 μM of each tested compound. The tested compounds were either applied to the base of the cutting, with or without IBA and/or sprayed on the foliage in the presence of 0.05% Triton™ X-100 surfactant. Cuttings were rooted in rooting tables heated to 25° C. under constant 90% humidity, in a controlled-climate greenhouse. The rooting medium contained crushed polystyrene foam: vermiculite no. 3: pit (3:2:1, v/v/v). Rooting was recorded after 30-60 days. Roots system architecture was analyzed by WinRHIZO™ system scanner and software.
Exemplary conjugates prepared as described in Example 1 were tested for their ability to promote adventitious root (AR) formation in cuttings from mature eucalyptus (Eucalyptus grandis) trees. In this model, AR formation is difficult to induce, with 5-15% root development in the presence of IBA potassium salt [Abu-Abied et al., Plant J 2012, 71:787-799], such that effective AR formation indicates a potent root formation activity.
Various concentrations and mode of applications were tested for each compound in the presence or absence of IBA (the “gold standard” rooting enhancer). A concentration of 100 μM of each conjugate was used for an initial screen of 37 conjugates, in which the compounds were applied to the base of the cutting by dipping (submerging the cutting base in a solution of the conjugate for one minute) or to the foliage by spraying. After 45 days, the cuttings were scored for the presence of callus or roots.
Conjugates prepared as described herein were evaluated in a Eucalyptus grandis rooting model, according to procedures such as described hereinabove. The bases of cuttings (a 12-15 cm long branch with the two upper leaves, whose blades were cut in half) were dipped in a solution containing 6000 ppm IBA potassium salt and 50 μM of conjugate for 1 minute, and the leaves were sprayed with 50 μM of the same conjugate (mixed with 0.5% Triton™ X-100 surfactant). The cuttings were imbedded in a heated (25° C.) rooting table containing a 1:2:3 ratio of peat:vermiculite:polystyrene, under 90% relative humidity.

Another experiment relates to mung bean cuttings. The experiment in a line: rooting of mung bean cuttings (number of adventitious roots per cutting). Conditions: for effect on AR formation in mung bean cuttings, in words: tested at 2, 10 or 50 μM. Here is the method: Mung bean cuttings have been used for many years as a model for assessing the effect of plant hormones and synthetic chemicals on the rooting process. In the present study, this system was used to ascertain activity of conjugates in inducing adventitious root (AR) formation, and to evaluate the rate of conjugate hydrolysis that releases the free active auxin. […] The rooting activity in this system is determined by the number of adventitious roots per cutting.
The mung bean model was used to examine the activity of conjugates of three phenoxy acids, 4-CPA, MCPA, and 2-DP, on rooting. For comparison, plants were treated with (unconjugated) IBA or with 2-DP conjugated to glycine methyl ester (Gly-ME).

The test system of experiment [2] is avocado rootstock cuttings. Put plainly: rooting of avocado rootstock cuttings. Conditions: vc51 rootstock, IBA with compound; for rooting success rate of green avocado branches, in words: compared with IBA alone. From the text: Avocado rootstock is extremely difficult to root. Currently, the common technique for propagating clones of avocado rootstock is to graft the desired rootstock on a seedling, and transfer to the dark to generate an etiolated branch. This branch can be rooted and grafted with the desired variety while still grafted on the seed [Frolich & Platt, California Avocado Society 1971-72 Yearbook 1972, 55:97-109]. However, the preparation of such twice-grafted seedlings is time-consuming and expensive.
The ability of exemplary conjugates to promote rooting in green avocado cuttings (in the presence of IBA) was therefore examined. In particular, Compounds 2h (MCPA-methanol), 4b (NAA-β-alanine methyl ester), 3g (2-DP-methyl-4-aminobenzoate), 3f (2-DP-p-toluidine), 1l (4-CPA-morpholine) and is (4-CPA-D-Trp) were tested.
Exemplary conjugates were also tested for rooting the hard-to-root species of avocado (VC801 rootstock) and argan, according to procedures described hereinabove.

Setting [3] is: Table 1, 50 μM, water control 29.6.
[4] abbreviates: Table 1, 10 μM, water control 29.6.

Regarding `COC(=O)[C@@H](CC(C)C)NC(=O)COc1ccc(Cl)cc1` [4-CPA-D-Leu-methyl ester], the “rooting percentage of eucalyptus cuttings” value in experiment [1] was 5%.

For the compound `COC(=O)[C@H]1CCCN1C(=O)COc1ccc(Cl)cc1` [4-CPA-D-Pro-methyl ester], the “rooting percentage of eucalyptus cuttings” value in experiment [1] is reported as 10%.

As to `Cc1ccc(NC(=O)COc2ccc(Cl)cc2)nc1` [Compound 1c], the “rooting of mung bean cuttings (number of roots per cutting)” value (shortened to “rooting … (number of roots per cutting)”) with mung bean cuttings (setting [3]) was determined as 0.

Regarding `COC(=O)c1ccnc(NC(=O)COc2ccc(Cl)cc2)c1` [Compound 1d], the “rooting … (number of roots per cutting)” value with mung bean cuttings (setting [4]) and in the experiment on mung bean cuttings (setting [3]) was 0 each time.

Regarding `Cc1ccccc1NC(=O)COc1ccc(Cl)cc1` [Compound 1e], the “rooting … (number of roots per cutting)” value with mung bean cuttings (setting [3]) worked out at 0.

With `CCC(C)NC(=O)COc1ccc(Cl)cc1` (centres unmarked) [Compound 1i], the “rooting … (number of roots per cutting)” value in the experiment on mung bean cuttings (Table 2, 2 μM) was determined as 23; in the experiment with mung bean cuttings (Table 2, 10 μM), 25; in the experiment with mung bean cuttings (Table 2, 50 μM), 0. Moreover, the “rooting compared with Compound 1a (4-CPA-ethanolamine), in words” value (“rooting compared with Compound 1a” below) in experiment [1] is listed as “not more effective at inducing rooting”.

Take `CCCCNC(=O)COc1ccc(Cl)cc1` [Compound 1j]: the “rooting … (number of roots per cutting)” value in the experiment with mung bean cuttings (Table 2, 2 μM) was determined as 22; with mung bean cuttings (Table 2, 10 μM), 0; with mung bean cuttings (Table 2, 50 μM) it was 0. Moreover, the “rooting compared with Compound 1a” value in experiment [1] was “not more effective at inducing rooting”.

As for `O=C(COc1ccc(Cl)cc1)N1CCCCC1` [Compound 1k], the “rooting … (number of roots per cutting)” value in the experiment on mung bean cuttings (Table 2, 2 μM) came out at 25; with mung bean cuttings (Table 2, 10 μM) it was 34; in the experiment with mung bean cuttings (Table 2, 50 μM) it was 0. Also, the “rooting compared with Compound 1a” value in experiment [1] was “not more effective at inducing rooting”.

Regarding `O=C(COc1ccc(Cl)cc1)N1CCOCC1` [Compound 1l, 4-CPA-morpholine], the “rooting … (number of roots per cutting)” value in the experiment with mung bean cuttings (Table 2, 2 μM) is 23; in the experiment on mung bean cuttings (Table 2, 10 μM), 0; in the experiment on mung bean cuttings (Table 2, 50 μM) it was 0. Moreover, the “rooting compared with Compound 1a” value in experiment [1] was “not more effective at inducing rooting”. In addition, the “roots per cutting of green avocado branches compared with etiolated branches treated with IBA, in words” value in experiment [2] is reported as “considerably more roots per cutting”. For the same compound, the “rooting success rate of green avocado branches, in words” value (shortened to “rooting success rate”) in experiment [2] is given as “considerably enhanced the rooting success rate”.

Regarding `O=C(COc1ccc(Cl)cc1)N(CCO)CCO` [Compound 1m], the “rooting compared with Compound 1a” value in experiment [1] is “not more effective at inducing rooting”.

On to `CN(CCO)C(=O)COc1ccc(Cl)cc1` [Compound 1n], for which the “rooting … (number of roots per cutting)” value in the experiment on mung bean cuttings (Table 2, 2 μM) was 16; with mung bean cuttings (Table 2, 10 μM), 24; in the experiment with mung bean cuttings (Table 2, 50 μM), 35. Moreover, the “effect on AR formation in mung bean cuttings, in words” value in the experiment on mung bean cuttings was “moderate rooting activity at 50 μM”. Moreover, in experiment [1], the “rooting compared with Compound 1a” value is given as “not more effective at inducing rooting”.

For the compound `CC(Oc1ccc(Cl)cc1Cl)C(=O)O` (centres unmarked) [Compound 2-DP, 2-(2,4-dichlorophenoxy)propionic acid, reference compound], the “effect on AR formation in mung bean cuttings, in words” value with mung bean cuttings is recorded as “positively correlated to dose”.

As for `Cc1cc(Cl)ccc1OCC(=O)NCCO` [Compound 2a], the “rooting … (number of roots per cutting)” value in the experiment on mung bean cuttings (setting [4]) came to 34.7; with mung bean cuttings (setting [3]) it was 72.1.

For `COC(=O)CCNC(=O)COc1ccc(Cl)cc1C` [Compound 2b], the results for the “rooting … (number of roots per cutting)” value in the experiment on mung bean cuttings (setting [4]) and with mung bean cuttings (setting [3]) were 94.8 and 63.2, respectively.

As to `Cc1ccc(NC(=O)COc2ccc(Cl)cc2C)nc1` [Compound 2c], the “rooting … (number of roots per cutting)” value with mung bean cuttings (setting [4]) and in the experiment with mung bean cuttings (setting [3]) was 0 throughout.

For `COC(=O)c1ccnc(NC(=O)COc2ccc(Cl)cc2C)c1` [Compound 2d], the “rooting … (number of roots per cutting)” value in the experiment on mung bean cuttings (setting [4]) worked out at 64.3; with mung bean cuttings (setting [3]), 0.

Regarding `Cc1ccccc1NC(=O)COc1ccc(Cl)cc1C` [Compound 2e], the “rooting … (number of roots per cutting)” value in the experiment on mung bean cuttings (setting [4]) was found to be 23.6; in the experiment on mung bean cuttings (setting [3]) it was 0.

Consider `Cc1ccc(NC(=O)COc2ccc(Cl)cc2C)cc1` [Compound 2f], for which the “rooting … (number of roots per cutting)” value in the experiment on mung bean cuttings (setting [4]) and in the experiment with mung bean cuttings (setting [3]) was 0 throughout.

Regarding `COC(=O)c1ccc(NC(=O)COc2ccc(Cl)cc2C)cc1` [Compound 2g], the “rooting … (number of roots per cutting)” value with mung bean cuttings (setting [4]) and in the experiment with mung bean cuttings (setting [3]) was 0 throughout.

`COC(=O)COc1ccc(Cl)cc1C` [Compound 2h, MCPA-methanol]: in experiment [2], the “roots per cutting of green avocado branches compared with etiolated branches treated with IBA, in words” value is reported as “considerably more roots per cutting” and the “rooting success rate” value was “considerably enhanced the rooting success rate”.

Turning to `CC(Oc1ccc(Cl)cc1Cl)C(=O)NCCO` (centres unmarked) [Compound 3a], the results for the “rooting … (number of roots per cutting)” value in the experiment on mung bean cuttings (setting [4]) and with mung bean cuttings (setting [3]) were 26.4 and 24.1, respectively.

In the case of `COC(=O)c1ccnc(NC(=O)C(C)Oc2ccc(Cl)cc2Cl)c1` (centres unmarked) [Compound 3d], the “rooting … (number of roots per cutting)” value in the experiment with mung bean cuttings (setting [4]) was 41.6; in the experiment with mung bean cuttings (setting [3]), 85.8.

Take `Cc1ccccc1NC(=O)C(C)Oc1ccc(Cl)cc1Cl` (centres unmarked) [Compound 3e]: the “rooting … (number of roots per cutting)” value in the experiment on mung bean cuttings (setting [4]) is recorded as 37.3; in the experiment with mung bean cuttings (setting [3]), 41.7.

With `COC(=O)c1ccc(NC(=O)C(C)Oc2ccc(Cl)cc2Cl)cc1` (centres unmarked) [Compound 3g, 2-DP-methyl-4-aminobenzoate], the “rooting … (number of roots per cutting)” value with mung bean cuttings (setting [4]) is recorded as 46.2. Moreover, the “rooting … (number of roots per cutting)” value in the experiment on mung bean cuttings (setting [3]) stood at 46.4. Also, in experiment [2], the “roots per cutting of green avocado branches compared with etiolated branches treated with IBA, in words” value is recorded as “considerably more roots per cutting” and the “rooting success rate” value was “considerably enhanced the rooting success rate”.

In the case of `COC(=O)CCNC(=O)Cc1cccc2ccccc12` [Compound 4b, NAA-β-alanine methyl ester], in experiment [2], the “roots per cutting of green avocado branches compared with etiolated branches treated with IBA, in words” value is listed as “considerably more roots per cutting” and the “rooting success rate” value is “considerably enhanced the rooting success rate”.
